Assay results as given in patent US7425579B2, “Methods for inhibiting activity of polyamine transporters” (Universite Laval, priority 1998, dated 2008).

Columns and labels:
[1] = system: polyamine transport system; assay: Time course of [3H]spermidine accumulation in T-47D cells; assay type: cell-based, human
Method: In particular, exponentially growing T-47D (A) or ZR-75-1 cells (B and C) were transferred to serum-free medium containing 5 μM [^3H]spermidine, and either 200 μM cycloheximide (CHX) (●), 100 μM BNSD-X (□), CHX plus BNSD-X (▪), or vehicle only (∘). Cells were incubated for the time intervals indicated prior to harvesting for detrmination of total intracellular radioactivity. ZR-75-1 cells were either pre-incubated for 48 h in the absence (panel B) or presence of 1 mM DFMO (panel C) prior to the experiment shown; DFMO was also included during the labeling period in the appropriate group. Data are presented as the mean±SD for triplicate cultures from one representative experiment;
The effect of BNSD-X on the time course of [^3H]spermidine accumulation was determined in ZR-75-1 and T-47D cells pre-incubated in the presence or absence of DFMO before addition of radioactive substrate and the transport inhibitor. Subgroups of cell cultures were also treated with cycloheximide in order to prevent the polyamine-dependent induction of ODC antizyme, which rapidly down-regulates polyamine transport activity through an unknown mechanism (Lessard et al. (1995) J. Biol. Chem. 270, 1685-1694; Coffino et al. (2001) Nat Rev Mol Cell Biol. 2:188-194). As expected, [^3H]spermidine accumulation reached a plateau after approximately 2 h in both […], but increased in an approximately linear fashion for the first 6-8 h in the presence of cycloheximide, consistent with relief from feedback repression of polyamine transport as a result of inhibition of antizyme synthesis. At a BNSD-X:spermidine ratio of 20:1, the triamine dimer decreased net [^3H]spermidine uptake in T-47D cells after 8 h by 92% and 80% in the presence or absence of cycloheximide, respectively (FIG. 7A), whereas it inhibited spermidine accumulation by 90 and 65%, respectively, under the same conditions in ZR-75-1 cells (FIG. 7B). […]

[2] = Bioavailability of BNSD-X in drinking water: plasma and erythrocyte concentrations; assay type: in vivo, CD-1 mice; settings: for Erythrocyte concentration, Spermidine / Erythrocyte concentration, Spermine / Plasma concentration, BNSD-X / Plasma concentration, Putrescine / Plasma concentration, Spermidine / Plasma concentration, Spermine: mean±S.E.
Method: To determine the bioavailability of BNSD-X, escalating doses of BNSD-X were dissolved in the drinking water (0, 0.25, 0.5, 1, 2 and 4%, w/v) and were made available to CD-1 mice (n=6/group) ad libitum. Animals were sacrificed after 96 h, and blood was immediately collected to determine the concentration of BNSD-X and polyamines in plasma and erythrocytes by HPLC using the dansylation method (Kabra et al. (1986) J. Chromatogr. 380:19-32).
The suitability of BNSD-X as an in vivo inhibitor of polyamine transport was next assessed in the mouse. We first determined the bioavailability of the compound by adding escalating doses of BNSD-X (0, 0.25, 0.5, 1.0, 2.0 and 4.0% (w/v)) in the drinking water of CD-1 mice. Mice were sacrificed after 4 d and the concentration of BNSD-X and polyamines was determined in plasma and erythrocytes (Tables 3 and 4). […] The plasma concentration reached by the chronic drinking of a 1% (w/v) solution of BNSD-X is thus approximately equal to the Ki value of the drug as an inhibitor of spermidine uptake in breast cancer cells (see Table 1). The drug had no effect on the plasma concentration of either putrescine, spermidine or spermine. […] These pharmacokinetic properties indicate that BNSD-X can be administered by a very convenient route to animals up to a dose sufficient in principle to inhibit the major fraction of the uptake of spermidine from the plasma.

CD-1 mice = assay: Chronic toxicity of BNSD-X, 1% in drinking water for 14 d; assay type: in vivo; settings: 1% (w/v) in drinking water
Method: (§1) To assess the relative toxicity of BNSD-X, the drug was administered as a 1% (w/v) solution in the drinking water to CD-1 mice with ad libitum access for 14 d. Mice were weighed every other day during the experiment. At the end of the experiment, mice were sacrificed, and organs (kidneys, liver, and spleen) were immediately weighed. Organs were then saved in 10% formalin for morphological examination by an in-house pathologist at the CHUL Research Center (Quebec City, Canada). Acute and subacute oral toxicity of BNSD-X was also separately determined by administering the drug by gavage (0-5 g/kg body weight).
The chronic toxicity of BNSD-X was next evaluated by allowing CD-1 mice to drink a 1% (w/v) solution of the drug for 14 d, and then sacrificing animals for the histological examination of the liver, kidneys and spleen.

mice = assay: Acute and subacute oral toxicity of BNSD-X by gavage; assay type: in vivo
Method: as §1
Orally administered polyamines (at ≧0.6 g/kg/day) can have deleterious neurological effects and induce lesions on internal organs (Til et al. (1997) Food Chem Toxicol. 35:337-348.). In order to assess the acute and subacute toxicity of BNSD-X as an orally delivered hexaamine, the effects of gavage with solid BNSD-X pellets was first examined in mice.

[3] = 0.25% (w/v) BNSD-X in drinking water, 96 h
[4] = 0.50% (w/v) BNSD-X in drinking water, 96 h
[5] = 1.0% (w/v) BNSD-X in drinking water, 96 h

NCCCN(CCCN)Cc1ccc(CN(CCCN)CCCN)cc1 [28a, N,N,N′,N′-tetrakis-(3-aminopropyl)-p-diaminoxylene]
residual rate of spermidine influx, of the maximal rate of spermidine accumulation ([1]; 20-fold excess of BNSD-X, T-47D and ZR-75-1): 8-10%
decrease of net [3H]spermidine uptake, without cycloheximide ([1]; T-47D, after 8 h, BNSD-X:spermidine 20:1): 80%
decrease of net [3H]spermidine uptake, with cycloheximide ([1]; T-47D, after 8 h, BNSD-X:spermidine 20:1 (100 μM:5 μM), 200 μM cycloheximide): 92%
Erythrocyte concentration, Spermidine [2, 3]: 1975 ± 236 nmol/L packed erythrocytes
Erythrocyte concentration, Spermine [2, 3]: 60 ± 14 nmol/L packed erythrocytes
Plasma concentration, BNSD-X [2, 3]: 6 ± 3 nM
Plasma concentration, Putrescine [2, 3]: 108 ± 11 nM
Plasma concentration, Spermidine [2, 3]: 147 ± 6 nM
Plasma concentration, Spermine [2, 3]: 24 ± 1 nM
Erythrocyte concentration, Spermidine [2, 4]: 2762 ± 560 nmol/L packed erythrocytes
Erythrocyte concentration, Spermine [2, 4]: 95 ± 12 nmol/L packed erythrocytes
Plasma concentration, BNSD-X [2, 4]: 32 ± 6 nM
Plasma concentration, Putrescine [2, 4]: 106 ± 10 nM
Plasma concentration, Spermidine [2, 4]: 137 ± 18 nM
Plasma concentration, Spermine [2, 4]: 31 ± 6 nM
Erythrocyte concentration, Spermidine [2, 5]: 2079 ± 291 nmol/L packed erythrocytes
Erythrocyte concentration, Spermine [2, 5]: 83 ± 23 nmol/L packed erythrocytes
Plasma concentration, BNSD-X [2, 5]: 129 ± 33 nM
Plasma concentration, Putrescine [2, 5]: 117 ± 19 nM
Plasma concentration, Spermidine [2, 5]: 168 ± 15 nM
Plasma concentration, Spermine [2, 5]: 38 ± 3 nM
water consumption ([2]; BNSD-X concentrations higher than 1.0% (2.0 and 4.0%) in drinking water): decreased drastically
effect on the plasma concentration of putrescine, spermidine or spermine ([2]; BNSD-X in drinking water, 96 h): no effect
accumulation into erythrocytes ([2]; BNSD-X up to 1.0% in drinking water): did not accumulate into erythrocytes
oral absorption ([2]; in drinking water): readily absorbed orally
behavior and general body appearance (CD-1 mice): no incidence on the behavior nor general body appearance of the animals
histological morphology of the liver, kidney and spleen (CD-1 mice; light microscopy): no observable differences
adverse effect on animal behavior, body weight, body features and gross anatomy of kidneys, liver or spleen (mice; gavage, up to 5.0 g/kg body weight): No external sign of sign of adverse effect
LD50 (mice; oral gavage with solid BNSD-X pellets): > 5 g/body weight
